The values that follow come from patent US20180036332A1 (Chongqing Institute of Bench-to Bed Bioengineering …, priority 2015, published 2018).

Details of test [1]: species or system rats. Conditions: rat, in vivo.
Test [2] relates to primary endothelial cells HUVEC. Nature of the test: MTT cell viability assay of primary endothelial cells HUVEC in low glucose and hypoxia environment. It is filed as cell-based. The note with it: 48 hours. On the technique in general: Tetrazolium dyes change colour on reduction, which living cells bring about.

Turning to “Nicotinamide adenine dinucleotide phosphate [NADPH]”, in test [1], the “range of myocardial infarction (weight % of ischemic infarct zone in total ischemic myocardial zone)” value is reported as “significantly reduces the range of myocardial infarction”. Further, the “survival rate of HUVEC cells” value is “around 65.3%” in test [2] (5 μM NADPH, p<0.05); “around 73.6%” in test [2] (10 μM NADPH, p<0.01); “around 70.9%” in test [2] (20 μM NADPH, p<0.01).
